From patent US20260201008A1, “SECRETIN-DERIVED GLP1R SELECTIVE AGONISTS” (GUBRA A/S, priority 2023, published 2026)
Read-outs that look alike come from different tables or passages of the source. Numbered stars: 1 amine (or outer) side, 2 acyl side, 3 side chain; on linkers, the order of the positions; unused ones are H or OH. Square brackets hold non-standard residues; d marks the D form. Side chains are listed from the residue outwards. Peptide text beside a SMILES is read from it. * marks the point of attachment. C20 diacid = O=C(O)CCCCCCCCCCCCCCCCCCC(=O)*; γGlu = O=C(O)[C@H](CCC(=O)[*:2])N[*:1]; AEEA = NCCOCCOCC(=O)O; Aib = CC(C)(N)C(=O)O

Columns and labels:
[1] = Turbidity of crude library peptides (absorbance at 600 nm); assay type: physicochemical; settings: Physical stability of peptides
Outline: (§1)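 Turbidity is the absorbance at 600 nm, taken before heating. Fibril signal is the mean ThT emission at 480 nm (450 nm excitation), read every 10 min over 72 h at 40° C with 700 rpm shaking between reads. Peptides at 267 μM, pH 4.0 acetate or pH 7.0 phosphate buffer (50 mM), 4 μM ThT final.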

[2] = Fibril formation of crude library peptides (Thioflavin T); assay type: physicochemical; parameters: key: average ThT fluorescence emission at 480 nm (ex 450 nm), raw units; settings: Physical stability of peptides
Outline: as §1

GLP1R = GLP1R (Homo sapiens, UniProt P43220); experiment: hGLP1R potency, cAMP accumulation in CHO-K1 cells stably overexpressing hGLP1R; assay type: cell-based; parameters: host or cells: CHO-K1; settings: for EC50: cAMP accumulation, CHO-K1 cells overexpressing hGLP1R; for SCTR EC50/GLP1R EC50 ratio: selectivity for hGLP1R over hSCTR, cAMP accumulation in CHO-K1 cells; for Selectivity: SCTR EC50/GLP1R EC50 ratio
Chain of GLP1R (P43220 24-463): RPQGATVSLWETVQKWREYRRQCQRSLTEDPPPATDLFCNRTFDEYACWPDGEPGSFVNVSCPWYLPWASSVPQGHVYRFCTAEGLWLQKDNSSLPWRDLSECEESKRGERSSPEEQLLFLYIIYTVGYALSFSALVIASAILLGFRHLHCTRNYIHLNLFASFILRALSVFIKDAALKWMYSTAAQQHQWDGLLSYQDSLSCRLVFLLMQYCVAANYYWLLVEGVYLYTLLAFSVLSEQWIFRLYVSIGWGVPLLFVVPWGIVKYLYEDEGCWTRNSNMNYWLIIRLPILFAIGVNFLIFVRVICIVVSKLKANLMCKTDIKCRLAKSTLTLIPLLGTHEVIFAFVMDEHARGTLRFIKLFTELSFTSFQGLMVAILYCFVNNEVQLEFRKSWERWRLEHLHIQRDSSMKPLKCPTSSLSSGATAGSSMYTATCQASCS
Outline: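 2000 cells/well, DPBS + 0.05% casein + 0.5 mM IBMX; 30 min RT stimulation; HTRF cAMP detection after 1 h. Purified: 3-fold ×11, n=2; crude: 10-fold ×5, n=1. EC50 by variable-slope fit.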

SCTR = SCTR (Homo sapiens, UniProt P47872); experiment: hSCTR potency, cAMP accumulation in CHO-K1 cells stably overexpressing hSCTR; assay type: cell-based; parameters: alternatively Euroscreen ES-712-AF; FAST-0161L; host or cells: CHO-K1; settings: cAMP accumulation, CHO-K1 cells overexpressing hSCTR
Chain of SCTR (P47872 23-440): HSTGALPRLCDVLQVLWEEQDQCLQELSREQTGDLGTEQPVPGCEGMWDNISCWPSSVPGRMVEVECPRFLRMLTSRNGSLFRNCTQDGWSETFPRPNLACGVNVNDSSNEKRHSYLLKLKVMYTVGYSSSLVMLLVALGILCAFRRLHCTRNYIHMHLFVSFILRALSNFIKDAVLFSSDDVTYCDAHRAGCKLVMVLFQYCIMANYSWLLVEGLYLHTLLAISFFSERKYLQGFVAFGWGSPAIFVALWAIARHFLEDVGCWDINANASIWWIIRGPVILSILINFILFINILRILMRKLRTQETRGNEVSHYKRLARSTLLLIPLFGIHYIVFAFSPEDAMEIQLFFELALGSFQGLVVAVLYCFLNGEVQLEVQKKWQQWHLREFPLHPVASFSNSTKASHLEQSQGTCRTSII
Outline: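 Thawed CHO-K1 cells carrying stable hSCTR are plated into casein/IBMX buffer (0.05%, 0.5 mM), dosed immediately for 30 min at room temperature, then cAMP is detected by TR-FRET. Purified peptides run as 11 three-fold dilutions in duplicate, and curves are fitted with variable slope.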

[3] = read-out: hGLP1R pEC50 (converted)
[4] = read-out: hSCTR pEC50 (converted)
[5] = read-out: pEC50 hGLPR1 (converted)
[6] = read-out: pEC50 hSCTR (converted)

CC(C)C[C@H](NC(=O)[C@H](Cc1ccccc1)NC(=O)[C@H](CCCNC(=N)N)NC(=O)[C@H](CCC(N)=O)NC(=O)[C@H](CC(C)C)NC(=O)C(C)(C)NC(=O)[C@H](C)NC(=O)[C@H](CCC(=O)O)NC(=O)[C@H](CCC(=O)O)NC(=O)[C@H](CCCCNC(=O)COCCOCCNC(=O)COCCOCCNC(=O)CC[C@H](NC(=O)CCCCCCCCCCCCCCCCCCC(=O)O)C(=O)O)NC(=O)[C@H](CC(C)C)NC(=O)[C@H](CC(=O)O)NC(=O)[C@H](CO)NC(=O)[C@@H](NC(=O)[C@H](CC(=O)O)NC(=O)[C@H](CO)NC(=O)[C@@H](NC(=O)[C@H](Cc1ccccc1)NC(=O)[C@@H](NC(=O)CNC(=O)[C@H](CCC(=O)O)NC(=O)C(C)(C)NC(=O)[C@@H](N)Cc1c[nH]cn1)[C@@H](C)O)[C@@H](C)O)C(C)C)C(=O)N[C@@H](CCC(=O)O)C(=O)N[C@@H](Cc1c[nH]cn1)C(=O)N[C@@H](CC(C)C)C(=O)N[C@H](C(N)=O)C(C)C [compound 153] (H-H[Aib]EGTFTSDVSDLK([AEEA-AEEA-γGlu-C20 diacid])EEA[Aib]LQRFLEHLV-NH2)
Turbidity (pH 7) [1]: 0.08 | Fibril formation [2]: 3897 | EC50 (GLP1R; [3]): 0.02 nM | SCTR EC50/GLP1R EC50 ratio (GLP1R): 16095 | EC50 (SCTR; [4]): 316 nM

CC(C)C[C@H](NC(=O)[C@H](Cc1ccccc1)NC(=O)[C@H](CCCNC(=N)N)NC(=O)[C@H](CCC(N)=O)NC(=O)[C@H](C)NC(=O)[C@H](C)NC(=O)[C@H](C)NC(=O)[C@H](CCC(=O)O)NC(=O)[C@H](CCC(=O)O)NC(=O)[C@H](CCCCNC(=O)COCCOCCNC(=O)COCCOCCNC(=O)CC[C@H](NC(=O)CCCCCCCCCCCCCCCCCCC(=O)O)C(=O)O)NC(=O)[C@H](CC(C)C)NC(=O)[C@H](Cc1ccc(O)cc1)NC(=O)[C@H](CO)NC(=O)[C@@H](NC(=O)[C@H](CC(=O)O)NC(=O)[C@H](CO)NC(=O)[C@@H](NC(=O)[C@H](Cc1ccccc1)NC(=O)[C@@H](NC(=O)CNC(=O)[C@H](CCC(=O)O)NC(=O)C(C)(C)NC(=O)[C@@H](N)Cc1c[nH]cn1)[C@@H](C)O)[C@@H](C)O)C(C)C)C(=O)N[C@@H](CCC(=O)O)C(=O)N[C@@H](Cc1c[nH]cn1)C(=O)N[C@@H](CC(C)C)C(=O)N[C@H](C(N)=O)C(C)C [compound 61] (H-H[Aib]EGTFTSDVSYLK([AEEA-AEEA-γGlu-C20 diacid])EEAAAQRFLEHLV-NH2)
Turbidity (pH 7) [1]: 0.09 | Fibril formation [2]: 9138 | Selectivity (GLP1R): 66252 | EC50 (GLP1R; [5]): 0.0126 nM | EC50 (SCTR; [6]): 794 nM

CC[C@H](C)[C@H](NC(=O)[C@H](Cc1ccccc1)NC(=O)[C@H](CCCNC(=N)N)NC(=O)[C@H](CCC(N)=O)NC(=O)[C@H](CC(C)C)NC(=O)[C@H](C)NC(=O)[C@H](C)NC(=O)CNC(=O)[C@H](CCC(=O)O)NC(=O)[C@H](CC(C)C)NC(=O)[C@H](CC(C)C)NC(=O)[C@H](Cc1c[nH]c2ccccc12)NC(=O)[C@H](CO)NC(=O)C(C)(C)NC(=O)[C@H](CC(=O)O)NC(=O)[C@H](CO)NC(=O)[C@@H](NC(=O)[C@H](Cc1ccccc1)NC(=O)[C@@H](NC(=O)CNC(=O)[C@H](CCC(=O)O)NC(=O)C(C)(C)NC(=O)[C@@H](N)Cc1c[nH]cn1)[C@@H](C)O)[C@@H](C)O)C(=O)N[C@@H](CCC(N)=O)C(=O)N[C@@H](Cc1c[nH]c2ccccc12)C(=O)N[C@@H](CC(C)C)C(=O)N[C@H](C(N)=O)C(C)C [compound 108] (H-H[Aib]EGTFTSD[Aib]SWLLEGAALQRFIQWLV-NH2)
Turbidity (pH 7) [1]: 0.72 | Fibril formation [2]: 20603 | EC50 (GLP1R; [3]): 0.0794 nM | SCTR EC50/GLP1R EC50 ratio (GLP1R): 14555 | EC50 (SCTR; [4]): 1260 nM

CC[C@H](C)[C@H](NC(=O)[C@H](Cc1ccccc1)NC(=O)[C@H](CCCNC(=N)N)NC(=O)[C@H](CCC(N)=O)NC(=O)[C@H](CC(C)C)NC(=O)[C@H](C)NC(=O)[C@H](C)NC(=O)CNC(=O)[C@H](CCC(=O)O)NC(=O)[C@H](CC(C)C)NC(=O)[C@H](CC(C)C)NC(=O)[C@H](Cc1ccc(O)cc1)NC(=O)[C@H](CO)NC(=O)[C@@H](NC(=O)[C@H](CC(=O)O)NC(=O)[C@H](CO)NC(=O)[C@@H](NC(=O)[C@H](Cc1ccccc1)NC(=O)[C@@H](NC(=O)CNC(=O)[C@H](CCC(=O)O)NC(=O)C(C)(C)NC(=O)[C@@H](N)Cc1c[nH]cn1)[C@@H](C)O)[C@@H](C)O)C(C)C)C(=O)N[C@@H](CCC(N)=O)C(=O)N[C@@H](Cc1c[nH]c2ccccc12)C(=O)N[C@@H](CC(C)C)C(=O)N[C@H](C(N)=O)C(C)C [compound 181] (H-H[Aib]EGTFTSDVSYLLEGAALQRFIQWLV-NH2)
Turbidity (pH 7) [1]: 0.69 | Fibril formation [2]: 257400 | EC50 (GLP1R; [3]): 0.0501 nM | SCTR EC50/GLP1R EC50 ratio (GLP1R): 4280 | EC50 (SCTR; [4]): 200 nM

CC(C)C[C@H](NC(=O)[C@H](Cc1ccccc1)NC(=O)[C@H](CCCNC(=N)N)NC(=O)[C@H](CCC(N)=O)NC(=O)[C@H](CCC(N)=O)NC(=O)[C@H](C)NC(=O)[C@H](C)NC(=O)[C@@H](NC(=O)[C@H](CCC(=O)O)NC(=O)[C@H](CCCCNC(=O)COCCOCCNC(=O)COCCOCCNC(=O)CC[C@H](NC(=O)CCCCCCCCCCCCCCCCCCC(=O)O)C(=O)O)NC(=O)[C@H](CC(C)C)NC(=O)[C@@H](NC(=O)[C@H](CO)NC(=O)[C@@H](NC(=O)[C@H](CC(=O)O)NC(=O)[C@H](CO)NC(=O)[C@@H](NC(=O)[C@H](Cc1ccccc1)NC(=O)[C@@H](NC(=O)CNC(=O)[C@H](CCC(=O)O)NC(=O)C(C)(C)NC(=O)[C@@H](N)Cc1c[nH]cn1)[C@@H](C)O)[C@@H](C)O)C(C)C)C(C)C)[C@@H](C)O)C(=O)N[C@@H](CCC(=O)O)C(=O)N[C@@H](Cc1c[nH]cn1)C(=O)N[C@@H](CC(C)C)C(=O)N[C@H](C(N)=O)C(C)C [compound 41] (H-H[Aib]EGTFTSDVSVLK([AEEA-AEEA-γGlu-C20 diacid])ETAAQQRFLEHLV-NH2)
Turbidity (pH 7) [1]: 0.08 | Fibril formation [2]: 109124 | Selectivity (GLP1R): 16199 | EC50 (GLP1R; [5]): 0.00794 nM | EC50 (SCTR; [6]): 126 nM

CC(C)C[C@H](NC(=O)[C@H](Cc1ccccc1)NC(=O)[C@H](CCCNC(=N)N)NC(=O)[C@H](CCC(N)=O)NC(=O)[C@H](C)NC(=O)[C@H](C)NC(=O)[C@H](C)NC(=O)[C@@H](NC(=O)[C@H](CCC(=O)O)NC(=O)[C@H](CCCCNC(=O)COCCOCCNC(=O)COCCOCCNC(=O)CC[C@H](NC(=O)CCCCCCCCCCCCCCCCCCC(=O)O)C(=O)O)NC(=O)[C@H](CC(C)C)NC(=O)[C@H](CCC(=O)O)NC(=O)[C@H](CO)NC(=O)[C@@H](NC(=O)[C@H](CC(=O)O)NC(=O)[C@H](CO)NC(=O)[C@@H](NC(=O)[C@H](Cc1ccccc1)NC(=O)[C@@H](NC(=O)CNC(=O)[C@H](CCC(=O)O)NC(=O)C(C)(C)NC(=O)[C@@H](N)Cc1c[nH]cn1)[C@@H](C)O)[C@@H](C)O)C(C)C)[C@@H](C)O)C(=O)N[C@@H](CCC(=O)O)C(=O)N[C@@H](Cc1c[nH]cn1)C(=O)N[C@@H](CC(C)C)C(=O)N[C@H](C(N)=O)C(C)C [compound 57] (H-H[Aib]EGTFTSDVSELK([AEEA-AEEA-γGlu-C20 diacid])ETAAAQRFLEHLV-NH2)
Turbidity (pH 7) [1]: 0.08 | Fibril formation [2]: 4882 | Selectivity (GLP1R): 212618 | EC50 (GLP1R; [5]): 0.0251 nM | EC50 (SCTR; [6]): 5010 nM

CC[C@H](C)[C@H](NC(=O)[C@H](Cc1ccccc1)NC(=O)[C@H](CCCNC(=N)N)NC(=O)[C@H](CCC(N)=O)NC(=O)[C@H](CC(C)C)NC(=O)[C@H](C)NC(=O)[C@H](C)NC(=O)CNC(=O)[C@H](CCC(=O)O)NC(=O)[C@H](CC(C)C)NC(=O)[C@H](CC(C)C)NC(=O)[C@@H](NC(=O)[C@H](CO)NC(=O)C(C)(C)NC(=O)[C@H](CC(=O)O)NC(=O)[C@H](CO)NC(=O)[C@@H](NC(=O)[C@H](Cc1ccccc1)NC(=O)[C@@H](NC(=O)CNC(=O)[C@H](CCC(=O)O)NC(=O)C(C)(C)NC(=O)[C@@H](N)Cc1c[nH]cn1)[C@@H](C)O)[C@@H](C)O)C(C)C)C(=O)N[C@@H](CCC(N)=O)C(=O)N[C@@H](Cc1c[nH]c2ccccc12)C(=O)N[C@@H](CC(C)C)C(=O)N[C@H](C(N)=O)C(C)C [compound 110] (H-H[Aib]EGTFTSD[Aib]SVLLEGAALQRFIQWLV-NH2)
Turbidity (pH 7) [1]: 0.15 | Fibril formation [2]: 3449 | EC50 (GLP1R; [3]): 0.2 nM | SCTR EC50/GLP1R EC50 ratio (GLP1R): 10257 | EC50 (SCTR; [4]): 2000 nM
